Two compounds from PMC6773697, “Antileukemic activity of novel adenosine derivatives” (Scientific Reports, 2019) can be followed below.

One test relates to HMEC-1 cells. In words: XTT cytotoxicity assay, HMEC-1 (normal dermal endothelium). The format is cell-based. Conditions: Homo sapiens, 48 h incubation, none in the picture. On the procedure:
The cytotoxic activity test with XTT (sodium 3′-[1-(phenylaminocarbonyl)- 3,4-tetrazolium]-bis (4-methoxy-6-nitro) benzene sulfonic acid hydrate) is a colorimetric method for determining the parameters associated with cell viability. The cytotoxicity in HL-60, THP-1, MOLT-4, and HMEC-1 cells was measured by the XTT assay. XTT is reduced to formazan by the mitochondrial respiratory chain oxidoreductase, which is active only in living cells. The formed crystals of formazan are dissolved directly in the medium. The amount of product is proportional to the number of live cells.
The IC50 parameter was determined by dividing the mean absorbance values of the drug-treated samples by those of control cells and defined as the drug concentration causing a 50% reduction of cell viability relative to the control. It was calculated using the “Ed50v10(1)” computer application. Cells were plated in 96-well plates at a density of 15 × 10^3 cells in 100 μL culture medium. Drugs were then added at a concentration range of 10 nM–10,000 nM to obtain a final volume of the mixture of 150 μL. Some cells were preincubated with an ATR kinase inhibitor (VE-821) for 1 h at 37 °C before adding the tested compounds. In this case drugs were added at a concentration range of 10 nM–300 nM. For the XTT assay, after 48 h of incubation, the plates were centrifuged at 1,500 rpm for 10 min at 4 °C, the culture medium was removed, and the cells were suspended in 100 mm^3 of HBSS (Hank’s Buffered Salt Solution) containing 140 mM NaCl, 5 mM KCl, 0.8 mM MgCl2, 1.8 mM CaCl2, 1 mM Na2HPO4, 10 mM HEPES (N- (2-hydroxyethyl) -piperazine-N′- (2-ethanesulfonic acid), and 1% glucose at pH 7.4. Then, 50 μL of XTT solution (in PBS) was added to a final concentration of […]. In addition, PMS (phenazine methosulphate) - methyl dibenzo-N-methylpyrazine sulphate (0.383 mg/cm^3) was used, which was combined with XTT solution at a ratio of 1:50. After 4 h of incubation with XTT, absorbance was measured at a wavelength λ = 450 nm and reference wavelength λ = 690 nm with a microplate reader (BioTek, Winooski, VT, USA).
In general terms: Tetrazolium dyes change colour on reduction, which living cells bring about.

For the next test, the system named is dCK in THP-1 cells. Description: Deoxycytidine kinase activity, THP-1. The note with it: THP-1, 24 h incubation. The format is cell-based, human. On the procedure:
Deoxycytidine kinase activity was measured in accordance with the manufacturer’s protocol. The cells, at final concentration were plated at 1 × 10^6 cells per 24-well plates and cultured with the tested compounds for 24 h. Some cells were preincubated with an ATR kinase inhibitor (VE-821) for 1 h at 37 °C before adding the tested compounds. After drug treatment, the cells were washed with PBS and resuspended in an ice-cold cytosol extraction buffer containing 1 mM phenylmethylsulfonyl fluoride (PMSF) and a protease inhibitor cocktail. The cell lysate was centrifuged at 10,000 × g for 30 min at 4 °C. The protein concentration was determined using the Bradford method. The supernatant (cytosolic fraction) was collected and stored at −80 °C. The clarified cytoplasm extracts, dCK standards, and blank control were added to the appropriate microtiter plate wells with a biotin-conjugated polyclonal antibody prepared specifically for dCK. Avidin conjugated to horseradish peroxidase (HRP) was added to each microplate well and incubated. Then, a TMB substrate solution was added to the plate. […] The enzyme-substrate reaction was terminated by addition of a sulfuric acid solution. The color change was measured spectrophotometrically at a wavelength of 450 nm using a microplate reader (BioTek).

Another test deals with THP-1 cells. Description: Comet assay with proteinase K post-treatment (DNA-protein cross-links), THP-1. The format is cell-based, human. On the procedure:
Single cell gel electrophoresis (comet assay) was used to detect alkali labile sites, single and double DNA strand breaks, and cross-links induced by genotoxic agents. After electrophoresis and gel staining with 4,6-diamidino-2-phenylindole (DAPI), the released DNA was visible under a fluorescence microscope as a characteristic comet tail. The cells were plated on 24-well plates (20,000 cells/mL) and treated with CLA, CLA-FMOR, CLA-FPIP, or CLA-FPIR at the indicated concentrations for 2, 24, and 48 h at 37 °C. Some cells were preincubated with an ATR kinase inhibitor (VE-821) for 1 h at 37 °C before adding the tested compounds. Next, cells were collected into Eppendorf tubes and rinsed with PBS. Then, cells were suspended in 0.75% low melting point (LMP) agarose dissolved in PBS (pH 7.4) and placed on microscope slides precoated with 0.5% normal melting point (NMP) agarose. Subsequently, the slides were treated with a cooled lysis buffer (2.5 M NaCl, 100 mM EDTA, 10 mM Tris, 1% Triton X-100, pH 9.0) for 1–24 h at 4 °C. Then, slides were placed in developing buffer (300 mM NaOH, 1 mM EDTA) for 20 min. Electrophoresis was performed in […] (30 mM NaOH, 1 mM EDTA) at 29 V and 30 mA for 20 min. The samples were stained with DAPI ([…]). The slides were stored in a wet chamber at 4 °C and analyzed under a fluorescence microscope. Fifty randomly selected cells from each slide were measured using image analysis (Nikon, Japan) attached to a COHU 4910 video camera, which was equipped with a UV-1 filter block consisting of an excitation filter (359 nm) and a barrier filter (461 nm) connected to the image analysis system Lucia-Comet v. 4.51 (Czech Republic)[41]. In the samples preincubated with VE-821, the level of DNA damage associated with the ATR kinase was determined.
Because cross-links can be undetectable in the alkaline comet assay, a variant of this method including post-treatment with proteinase K (Cat no: P2308) was used. […]

For orientation: IC50 means the midpoint of a concentration-inhibition curve. Read a low IC50 as higher potency. As to `OC[C@H]1O[C@@H](n2cnc3c(N=CN4CCOCC4)nc(Cl)nc32)C[C@@H]1O` [CLA-FMOR, [6-deamino-6-(N′, N′-3′-oxa-1′, 5′-pentamethyleneformamidine)] cladribine], the midpoint of inhibition with HMEC-1 cells, the IC50, lay at 0.287 µM. Further, in the test on dCK in THP-1 cells, the dCK activity result was “highest dCK activity”. Moreover, the “DNA damage in the tail after proteinase K” value in the test with THP-1 cells (THP-1, 2–48 h) is recorded as “increased”.

Consider `OC[C@H]1O[C@@H](n2cnc3c(N=CN4CCCC4)nc(Cl)nc32)C[C@@H]1O` [CLA-FPIR, [6-deamino-6-(N′, N′-l′, 4′-tetramethyleneformamidino)] cladribine], for which, in the test with HMEC-1 cells, the IC50 is 0.231 µM. Moreover, the dCK activity entry with dCK in THP-1 cells is “highest dCK activity”. Moreover, in the test with THP-1 cells (THP-1, 24 h), the “DNA damage in the tail after proteinase K” value is recorded as “increased”.
